Patent US9085756B2, “Drug screening using islet cells and islet cell progenitors from human embryonic stem cells” (Asterias Biotherapeutic, Inc., priority 2001, dated 2015)

Tested on: hES cells
Test: Hepatocyte differentiation of hES cells, morphology
Assay type: cell-based, human
Details: 4 days in medium containing butyrate (after 1% DMSO pre-differentiation)
Text: Undifferentiated hES cells were differentiated into cells having characteristics of human hepatocytes using a strategy to initiate a global differentiation process using DMSO in a subconfluent culture. The cells are then induced to form hepatocyte-like cells by the addition of Na-butyrate.
Briefly, the hES cells were maintained in undifferentiated culture conditions for 2-3 days after splitting. At this time, the cells were 50 to 60% confluent and the medium was exchanged with unconditioned SR medium containing 1% DMSO (Step II). The cultures were fed daily with SR medium for 4 days and then exchanged into unconditioned SR medium containing both 1% DMSO and […] Na-butyrate, with which they were fed daily for 6 days (Step III). They were then replated onto collagen, and cultured in a hepatocyte maturation medium containing a cocktail of hepatocyte-friendly growth factors (Step IV).

CCCC(=O)[O-].[Na+] [butyrate, sodium n-butyrate]
Cells in the culture with large nuclei and granular cytoplasm: more than 80%
Cells in the culture with large nuclei and granular cytoplasm (listed as sodium n-butyrate): More than 80%
